Experimental data reported in ChEMBL document CHEMBL3885861, “Open TG-GATES”.

Organism: Rattus norvegicus
Experiment: Open TG-GATES - Regimen: Single
Assay type: toxicity, organism-based, Sprague-Dawley
Design: regimen Single, gender Male, age 6 weeks
Details: in vivo, po, route gavage; for TP / gamma-GTP / A/G / ALP / ALT / AST / BUN / CRE / Ca / Cl / DBIL / GLC / IP / K / LDH / Na / PL / RALB / TBIL / TC / TG: tissue Plasma; for APTT / Bas / Eos / Fbg / Hb / Ht / Lym / MCH / MCHC / MCV / Mono / Neu / PT / Plat / RBC / Ret / WBC: tissue Blood; for KIDNEY_L / KIDNEY_R / KIDNEY_TOTAL: tissue Kidney; for LIVER: tissue Liver
[1] = 2 mg/kg, 3 h, dose level Middle
[2] = 2 mg/kg, 6 h, dose level Middle
[3] = 2 mg/kg, 9 h, dose level Middle

SMILES: COc1ccc2c(c1)c(CC(=O)O)c(C)n2C(=O)c1ccc(Cl)cc1 [INDOMETHACIN]
- TP (1 mg/kg, 9 h, dose level Low): 5.3 g/dL
- gamma-GTP (1 mg/kg, 9 h, dose level Low): 1.4 IU/L
- TERMINAL_BW (1 mg/kg, 24 h, dose level Low): 215.2 g
- APTT (1 mg/kg, 24 h, dose level Low): 16.8 s
- Bas (1 mg/kg, 24 h, dose level Low): 0%
- Eos (1 mg/kg, 24 h, dose level Low): 0.8%
- Fbg (1 mg/kg, 24 h, dose level Low): 198.2 mg/dL
- Hb (1 mg/kg, 24 h, dose level Low): 13.5 g/dL
- Ht (1 mg/kg, 24 h, dose level Low): 40.7%
- Lym (1 mg/kg, 24 h, dose level Low): 79%
- MCH (1 mg/kg, 24 h, dose level Low): 21.8 pg
- MCHC (1 mg/kg, 24 h, dose level Low): 33.2%
- MCV (1 mg/kg, 24 h, dose level Low): 65.6 fL
- Mono (1 mg/kg, 24 h, dose level Low): 8.8%
- Neu (1 mg/kg, 24 h, dose level Low): 11.4%
- PT (1 mg/kg, 24 h, dose level Low): 12.3 s
- Plat (1 mg/kg, 24 h, dose level Low): 112.3 x10_4/uL
- RBC (1 mg/kg, 24 h, dose level Low): 620.8 x10_4/ul
- Ret (1 mg/kg, 24 h, dose level Low): 9%
- WBC (1 mg/kg, 24 h, dose level Low): 118.2 x10_2/uL
- KIDNEY_L (1 mg/kg, 24 h, dose level Low): 1 g
- KIDNEY_R (1 mg/kg, 24 h, dose level Low): 1 g
- KIDNEY_TOTAL (1 mg/kg, 24 h, dose level Low): 1.9 g
- LIVER (1 mg/kg, 24 h, dose level Low): 10.2 g
- A/G (1 mg/kg, 24 h, dose level Low): 2.2
- ALP (1 mg/kg, 24 h, dose level Low): 1141.2 IU/L
- ALT (1 mg/kg, 24 h, dose level Low): 41.2 IU/L
- AST (1 mg/kg, 24 h, dose level Low): 71 IU/L
- BUN (1 mg/kg, 24 h, dose level Low): 16.6 mg/dL
- CRE (1 mg/kg, 24 h, dose level Low): 0.5 mg/dL
- Ca (1 mg/kg, 24 h, dose level Low): 10.3 mg/dL
- Cl (1 mg/kg, 24 h, dose level Low): 105.2 meq/L
- DBIL (1 mg/kg, 24 h, dose level Low): 0.016 mg/dL
- GLC (1 mg/kg, 24 h, dose level Low): 202.6 mg/dL
- IP (1 mg/kg, 24 h, dose level Low): 8.6 mg/dL
- K (1 mg/kg, 24 h, dose level Low): 5.1 meq/L
- LDH (1 mg/kg, 24 h, dose level Low): 85 IU/L
- Na (1 mg/kg, 24 h, dose level Low): 138.4 meq/L
- PL (1 mg/kg, 24 h, dose level Low): 152.8 mg/dL
- RALB (1 mg/kg, 24 h, dose level Low): 3.9 g/dL
- TBIL (1 mg/kg, 24 h, dose level Low): 0.3 mg/dL
- TC (1 mg/kg, 24 h, dose level Low): 88.4 mg/dL
- TG (1 mg/kg, 24 h, dose level Low): 72 mg/dL
- TP (1 mg/kg, 24 h, dose level Low): 5.7 g/dL
- gamma-GTP (1 mg/kg, 24 h, dose level Low): 1 IU/L
- TERMINAL_BW [1]: 195.5 g
- APTT [1]: 17 s
- Bas [1]: 0%
- Eos [1]: 0.8%
- Fbg [1]: 215 mg/dL
- Hb [1]: 13.5 g/dL
- Ht [1]: 40.3%
- Lym [1]: 80.2%
- MCH [1]: 22.2 pg
- MCHC [1]: 33.5%
- MCV [1]: 66.2 fL
- Mono [1]: 8%
- Neu [1]: 11.4%
- PT [1]: 12.6 s
- Plat [1]: 109.7 x10_4/uL
- RBC [1]: 609.4 x10_4/ul
- Ret [1]: 10.3%
- WBC [1]: 99.3 x10_2/uL
- KIDNEY_L [1]: 0.9 g
- KIDNEY_R [1]: 0.9 g
- KIDNEY_TOTAL [1]: 1.8 g
- LIVER [1]: 8.7 g
- A/G [1]: 1.6
- ALP [1]: 1158.6 IU/L
- ALT [1]: 39.8 IU/L
- AST [1]: 74.4 IU/L
- BUN [1]: 10.6 mg/dL
- CRE [1]: 0.4 mg/dL
- Ca [1]: 10.3 mg/dL
- Cl [1]: 105.8 meq/L
- DBIL [1]: 0.056 mg/dL
- GLC [1]: 185.2 mg/dL
- IP [1]: 10 mg/dL
- K [1]: 4.8 meq/L
- LDH [1]: 99.4 IU/L
- Na [1]: 137.4 meq/L
- PL [1]: 125 mg/dL
- RALB [1]: 3.7 g/dL
- TBIL [1]: 0.4 mg/dL
- TC [1]: 72.2 mg/dL
- TG [1]: 40 mg/dL
- TP [1]: 6 g/dL
- gamma-GTP [1]: 1.2 IU/L
- TERMINAL_BW [2]: 199.6 g
- APTT [2]: 17 s
- Bas [2]: 0%
- Eos [2]: 0.8%
- Fbg [2]: 206.8 mg/dL
- Hb [2]: 13.3 g/dL
- Ht [2]: 40.2%
- Lym [2]: 81.2%
- MCH [2]: 21.6 pg
- MCHC [2]: 33.2%
- MCV [2]: 65.1 fL
- Mono [2]: 6.4%
- Neu [2]: 12%
- PT [2]: 12.5 s
- Plat [2]: 106.7 x10_4/uL
- RBC [2]: 617.8 x10_4/ul
- Ret [2]: 9.6%
- WBC [2]: 84.6 x10_2/uL
- KIDNEY_L [2]: 0.9 g
- KIDNEY_R [2]: 0.9 g
- KIDNEY_TOTAL [2]: 1.8 g
- LIVER [2]: 8.6 g
- A/G [2]: 1.8
- ALP [2]: 959 IU/L
- ALT [2]: 36.8 IU/L
- AST [2]: 75 IU/L
- BUN [2]: 10.6 mg/dL
- CRE [2]: 0.5 mg/dL
- Ca [2]: 10.1 mg/dL
- Cl [2]: 107 meq/L
- DBIL [2]: 0.036 mg/dL
- GLC [2]: 188.4 mg/dL
- IP [2]: 9.1 mg/dL
- K [2]: 4.9 meq/L
- LDH [2]: 91.4 IU/L
- Na [2]: 137.4 meq/L
- PL [2]: 120.8 mg/dL
- RALB [2]: 3.8 g/dL
- TBIL [2]: 0.3 mg/dL
- TC [2]: 73.4 mg/dL
- TG [2]: 38.6 mg/dL
- TP [2]: 5.9 g/dL
- gamma-GTP [2]: 2.2 IU/L
- TERMINAL_BW [3]: 198.4 g
- APTT [3]: 16.6 s
- Bas [3]: 0%
- Eos [3]: 0.6%
- Fbg [3]: 210 mg/dL
- Hb [3]: 13.1 g/dL
- Ht [3]: 39.8%
- Lym [3]: 79.6%
- MCH [3]: 21.8 pg
- MCHC [3]: 33%
- MCV [3]: 66.1 fL
- Mono [3]: 8.2%
- Neu [3]: 11.8%
- PT [3]: 12.4 s
- Plat [3]: 108.3 x10_4/uL
- RBC [3]: 602.2 x10_4/ul
- Ret [3]: 9.7%
